Measurements: ChEMBL document CHEMBL4814047, “Design, synthesis and biological activity of N-(amino)piperazine-containing benzothiazinones against Mycobacterium tuberculosis” (Eur J Med Chem, 2021)
Converted amounts (≈) assume the structure as drawn.

Legend:
[1] = Cytotoxicity against African green monkey Vero cells incubated for 72 hrs by MTT assay; assay type: cell-based; conditions: chlorocebus sabaeus
[2] = tested on: Mycobacterium tuberculosis; test: Antimycobacterial activity against Mycobacterium tuberculosis H37Rv ATCC 27294 incubated for 7 days by microplate alamar blue assay; assay type: functional; conditions: H37Rv ATCC 27294, 168 h, time 7 day
hERG (KCNH2) = hERG (KCNH2) (Homo sapiens, UniProt Q12809); test: Inhibition of human ERG expressed in HEK293 cells at 10 uM by whole cell patch clamp method relative to control; assay type: cell-based; conditions: HEK293 cells expressing hERG
Sequence of hERG (KCNH2) (Q12809 whole entry): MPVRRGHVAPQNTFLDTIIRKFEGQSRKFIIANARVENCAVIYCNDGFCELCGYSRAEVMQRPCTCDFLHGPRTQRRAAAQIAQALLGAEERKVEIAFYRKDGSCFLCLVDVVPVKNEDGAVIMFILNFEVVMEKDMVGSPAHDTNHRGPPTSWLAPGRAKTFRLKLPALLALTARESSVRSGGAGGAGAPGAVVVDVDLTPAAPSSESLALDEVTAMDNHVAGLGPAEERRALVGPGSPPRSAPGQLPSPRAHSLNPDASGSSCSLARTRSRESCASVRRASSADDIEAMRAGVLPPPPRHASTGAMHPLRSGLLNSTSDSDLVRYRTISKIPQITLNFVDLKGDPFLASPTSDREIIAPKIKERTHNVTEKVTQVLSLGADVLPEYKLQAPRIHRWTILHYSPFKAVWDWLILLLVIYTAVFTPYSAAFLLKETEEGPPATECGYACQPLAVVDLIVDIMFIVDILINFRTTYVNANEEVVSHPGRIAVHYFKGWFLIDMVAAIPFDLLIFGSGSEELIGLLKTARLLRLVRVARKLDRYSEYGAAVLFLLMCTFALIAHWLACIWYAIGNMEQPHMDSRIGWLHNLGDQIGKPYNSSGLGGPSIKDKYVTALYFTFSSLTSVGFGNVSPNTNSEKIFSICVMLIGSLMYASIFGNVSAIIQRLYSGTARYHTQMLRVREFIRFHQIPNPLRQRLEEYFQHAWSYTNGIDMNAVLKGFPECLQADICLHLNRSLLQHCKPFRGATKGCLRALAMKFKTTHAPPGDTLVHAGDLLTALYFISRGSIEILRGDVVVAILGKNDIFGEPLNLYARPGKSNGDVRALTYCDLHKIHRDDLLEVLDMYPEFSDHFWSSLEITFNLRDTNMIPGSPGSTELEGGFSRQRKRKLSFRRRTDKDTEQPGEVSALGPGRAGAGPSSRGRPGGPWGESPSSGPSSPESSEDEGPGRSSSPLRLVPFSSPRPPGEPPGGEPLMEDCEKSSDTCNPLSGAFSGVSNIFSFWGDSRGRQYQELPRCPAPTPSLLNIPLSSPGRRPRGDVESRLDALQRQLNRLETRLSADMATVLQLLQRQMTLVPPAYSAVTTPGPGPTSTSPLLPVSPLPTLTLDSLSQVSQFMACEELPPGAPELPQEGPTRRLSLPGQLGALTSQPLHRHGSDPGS

[3] = Half life in ICR mouse at 25 mg/kg, po measured upto 24 hrs by HPLC analysis; assay type: ADME, organism-based; conditions: in vivo
[4] = MRT in ICR mouse at 25 mg/kg, po measured upto 24 hrs by HPLC analysis; assay type: ADME, organism-based; conditions: in vivo
[5] = Tmax in ICR mouse at 25 mg/kg, po measured upto 24 hrs by HPLC analysis; assay type: ADME, organism-based; conditions: in vivo
[6] = Cmax in ICR mouse at 25 mg/kg, po measured upto 24 hrs by HPLC analysis; assay type: ADME, organism-based; design: route oral, dose 25 mg/kg, time <=24; conditions: in vivo
[7] = AUC (0 to infinity) in ICR mouse at 25 mg/kg, po measured upto 24 hrs by HPLC analysis; assay type: ADME, organism-based; design: route oral, dose 25 mg/kg, time <=24; conditions: in vivo

Structure (SMILES) | CC50 at 72 h [1] | MIC [2] | also measured
O=c1nc(N2CCN(/N=C/c3ccc(OC(F)(F)F)cc3)CC2)sc2c([N+](=O)[O-])cc(C(F)(F)F)cc12 | > 64 mg/L | < 0.016 mg/L | inhibition at 10 µM (hERG (KCNH2)): 88.2%
O=c1nc(NN2CCN(Cc3ccncc3)CC2)sc2c([N+](=O)[O-])cc(C(F)(F)F)cc12 |  | > 1 mg/L | 
CC(NN1CCN(c2nc(=O)c3cc(C(F)(F)F)cc([N+](=O)[O-])c3s2)CC1)c1ccc(OC(F)(F)F)cc1 (stereo unspecified) | > 64 mg/L | < 0.016 mg/L | 
O=c1nc(N2CCN(Nc3ccc(C(F)(F)F)cc3)CC2)sc2c([N+](=O)[O-])cc(C(F)(F)F)cc12 | > 64 mg/L | < 0.016 mg/L | 
O=c1nc(N2CCN(NCc3ccc(Br)cc3)CC2)sc2c([N+](=O)[O-])cc(C(F)(F)F)cc12 | > 64 mg/L | < 0.016 mg/L | 
O=c1nc(N2CCN(NCc3ccc(F)cc3)CC2)sc2c([N+](=O)[O-])cc(C(F)(F)F)cc12 | > 64 mg/L | < 0.016 mg/L | 
COc1ccc(CNN2CCN(c3nc(=O)c4cc(C(F)(F)F)cc([N+](=O)[O-])c4s3)CC2)cc1 | > 64 mg/L | < 0.016 mg/L | 
NN1CCN(c2nc(=O)c3cc(C(F)(F)F)cc([N+](=O)[O-])c3s2)CC1 |  | 0.941 mg/L (≈ 2.51 µM) | 
CC(C)CN(CC(C)C)N1CCN(c2nc(=O)c3cc(C(F)(F)F)cc([N+](=O)[O-])c3s2)CC1 | > 64 mg/L | < 0.016 mg/L | 
O=c1nc(N2CCN(NCc3ccc(OC(F)(F)F)cc3)CC2)sc2c([N+](=O)[O-])cc(C(F)(F)F)cc12 | > 64 mg/L | < 0.016 mg/L | inhibition at 10 µM (hERG (KCNH2)): 71.1%
O=C(C1CCCCC1)N1CCN(Nc2nc(=O)c3cc(C(F)(F)F)cc([N+](=O)[O-])c3s2)CC1 |  | > 1 mg/L | 
O=C(NN1CCN(c2nc(=O)c3cc(C(F)(F)F)cc([N+](=O)[O-])c3s2)CC1)c1ccc(C(F)(F)F)cc1 |  | 0.589 mg/L (≈ 1.08 µM) | 
O=c1nc(N2CCN(Nc3ccc(OC(F)(F)F)cc3)CC2)sc2c([N+](=O)[O-])cc(C(F)(F)F)cc12 | > 64 mg/L | < 0.016 mg/L | inhibition at 10 µM (hERG (KCNH2)): 55.5%
O=c1nc(N2CCN(NCc3ccc(Cl)cc3)CC2)sc2c([N+](=O)[O-])cc(C(F)(F)F)cc12 | > 64 mg/L | < 0.016 mg/L | 
Cc1cccc(F)c1CNN1CCN(c2nc(=O)c3cc(C(F)(F)F)cc([N+](=O)[O-])c3s2)CC1 | > 64 mg/L | < 0.016 mg/L | 
CN(c1ccc(OC(F)(F)F)cc1)N1CCN(c2nc(=O)c3cc(C(F)(F)F)cc([N+](=O)[O-])c3s2)CC1 | > 64 mg/L | < 0.016 mg/L | half-life [3]: 3.6 h; MRT [4]: 4.34 h; Tmax [5]: 0.667 h; Cmax [6]: 1.1 µg/mL; AUC(0-inf) [7]: 4.7 µg·h/mL; inhibition at 10 µM (hERG (KCNH2)): 45.6%
O=c1nc(N2CCN(NC3CCCCC3)CC2)sc2c([N+](=O)[O-])cc(C(F)(F)F)cc12 | > 64 mg/L | < 0.016 mg/L | half-life [3]: 1.28 h; MRT [4]: 1.47 h; Tmax [5]: 0.583 h; Cmax [6]: 1.96 µg/mL; AUC(0-inf) [7]: 4.43 µg·h/mL; inhibition at 10 µM (hERG (KCNH2)): 20.4%
CON=C1CCC(N(C)N2CCN(c3nc(=O)c4cc(C(F)(F)F)cc([N+](=O)[O-])c4s3)CC2)CC1 (stereo unspecified) | > 64 mg/L | < 0.016 mg/L | half-life [3]: 4.09 h; MRT [4]: 3.89 h; Tmax [5]: 0.5 h; Cmax [6]: 5.14 µg/mL; AUC(0-inf) [7]: 15.8 µg·h/mL; inhibition at 10 µM (hERG (KCNH2)): 22.7%
O=c1nc(N2CCN(NCc3cccnc3)CC2)sc2c([N+](=O)[O-])cc(C(F)(F)F)cc12 |  | 0.228 mg/L (≈ 0.489 µM) | 
O=c1nc(NN2CCN(Cc3ccc(OC(F)(F)F)cc3)CC2)sc2c([N+](=O)[O-])cc(C(F)(F)F)cc12 |  | > 1 mg/L | 
Cc1ccc(CNN2CCN(c3nc(=O)c4cc(C(F)(F)F)cc([N+](=O)[O-])c4s3)CC2)cc1 | > 64 mg/L | < 0.016 mg/L | 
CN(CC1CCCCC1)N1CCN(c2nc(=O)c3cc(C(F)(F)F)cc([N+](=O)[O-])c3s2)CC1 | > 64 mg/L | < 0.016 mg/L | inhibition at 10 µM (hERG (KCNH2)): 54.6%
O=c1nc(N2CCN(NCC3CCCC3)CC2)sc2c([N+](=O)[O-])cc(C(F)(F)F)cc12 | > 64 mg/L | < 0.016 mg/L | 

Structure (SMILES) | CC50 at 72 h [1] | MIC [2] | also measured
O=C(NN1CCN(c2nc(=O)c3cc(C(F)(F)F)cc([N+](=O)[O-])c3s2)CC1)C1CCCCC1 |  | 0.473 mg/L (≈ 0.974 µM) | 
O=c1nc(NN2CCN(CC3CCCCC3)CC2)sc2c([N+](=O)[O-])cc(C(F)(F)F)cc12 |  | > 1 mg/L | 
CON=C1CCC(CN(C)N2CCN(c3nc(=O)c4cc(C(F)(F)F)cc([N+](=O)[O-])c4s3)CC2)CC1 (stereo unspecified) |  | 0.025 mg/L (≈ 0.0473 µM) | 
O=c1nc(N2CCN(NCc3cccc(C(F)(F)F)c3)CC2)sc2c([N+](=O)[O-])cc(C(F)(F)F)cc12 | > 64 mg/L | < 0.016 mg/L | 
CC(c1ccc(OC(F)(F)F)cc1)N(C)N1CCN(c2nc(=O)c3cc(C(F)(F)F)cc([N+](=O)[O-])c3s2)CC1 (stereo unspecified) | > 64 mg/L | < 0.016 mg/L | half-life [3]: 3.89 h; MRT [4]: 2.66 h; Tmax [5]: 0.833 h; Cmax [6]: 0.944 µg/mL; AUC(0-inf) [7]: 2.87 µg·h/mL; inhibition at 10 µM (hERG (KCNH2)): 46.9%
O=c1nc(N2CCN(NCC3CCCCC3)CC2)sc2c([N+](=O)[O-])cc(C(F)(F)F)cc12 | 29.3 mg/L (≈ 62.1 µM) | < 0.016 mg/L | inhibition at 10 µM (hERG (KCNH2)): 64.4%
C/C(=N\N1CCN(c2nc(=O)c3cc(C(F)(F)F)cc([N+](=O)[O-])c3s2)CC1)c1ccc(OC(F)(F)F)cc1 | > 64 mg/L | < 0.016 mg/L | 
O=c1nc(N2CCN(N(CC3CCCC3)CC3CCCC3)CC2)sc2c([N+](=O)[O-])cc(C(F)(F)F)cc12 |  | 0.0803 mg/L (≈ 0.149 µM) | 
CON=C1CCC(NN2CCN(c3nc(=O)c4cc(C(F)(F)F)cc([N+](=O)[O-])c4s3)CC2)CC1 (stereo unspecified) |  | 0.028 mg/L (≈ 0.0559 µM) | 
CC(C)CNN1CCN(c2nc(=O)c3cc(C(F)(F)F)cc([N+](=O)[O-])c3s2)CC1 |  | 0.0281 mg/L (≈ 0.0651 µM) | 
O=C(NN1CCN(c2nc(=O)c3cc(C(F)(F)F)cc([N+](=O)[O-])c3s2)CC1)c1ccc(OC(F)(F)F)cc1 |  | 0.965 mg/L (≈ 1.71 µM) | 
O=c1nc(N2CCN(NCc3ccc(C(F)(F)F)cc3)CC2)sc2c([N+](=O)[O-])cc(C(F)(F)F)cc12 | > 64 mg/L | < 0.016 mg/L | 
CCC(CC)CN(CC(CC)CC)N1CCN(c2nc(=O)c3cc(C(F)(F)F)cc([N+](=O)[O-])c3s2)CC1 |  | 0.49 mg/L (≈ 0.902 µM) | 
O=c1nc(N2CCN(NCc3ccc(O)cc3)CC2)sc2c([N+](=O)[O-])cc(C(F)(F)F)cc12 |  | 0.9 mg/L (≈ 1.87 µM) | 
O=c1nc(N2CCN(NS(=O)(=O)C3CCCCC3)CC2)sc2c([N+](=O)[O-])cc(C(F)(F)F)cc12 |  | > 1 mg/L | 
O=c1nc(N2CCN(NCc3cc(F)cc(F)c3)CC2)sc2c([N+](=O)[O-])cc(C(F)(F)F)cc12 | > 64 mg/L | < 0.016 mg/L | 
CON=C1CCC(CNN2CCN(c3nc(=O)c4cc(C(F)(F)F)cc([N+](=O)[O-])c4s3)CC2)CC1 (stereo unspecified) |  | 0.057 mg/L (≈ 0.111 µM) | 
O=c1nc(N2CCN(NCCC3CCCCC3)CC2)sc2c([N+](=O)[O-])cc(C(F)(F)F)cc12 | > 64 mg/L | < 0.016 mg/L | inhibition at 10 µM (hERG (KCNH2)): 76.4%
CC(C)(C)c1ccc(CNN2CCN(c3nc(=O)c4cc(C(F)(F)F)cc([N+](=O)[O-])c4s3)CC2)cc1 | > 64 mg/L | < 0.016 mg/L | 
NNC(=O)c1ccncc1 [ISONIAZID] |  | 0.0366 mg/L (≈ 0.267 µM) | 
O=c1nc(N2CCN(CC3CCCCC3)CC2)sc2c([N+](=O)[O-])cc(C(F)(F)F)cc12 [MACOZINONE] | > 64 mg/L | < 0.016 mg/L | 
CO[C@H]1/C=C/O[C@@]2(C)Oc3c(C)c(O)c4c(O)c(c(/C=N/N5CCN(C)CC5)c(O)c4c3C2=O)NC(=O)/C(C)=C\C=C\[C@H](C)[C@H](O)[C@@H](C)[C@@H](O)[C@@H](C)[C@H](OC(C)=O)[C@@H]1C [RIFAMPIN] |  | 0.0382 mg/L (≈ 0.0464 µM) | 
